Experimental data from PMC6451745, “Development and dosimetry of ^203Pb/^212Pb-labelled PSMA ligands: bringing “the lead” into PSMA-targeted alpha therapy?” (European Journal of Nuclear Medicine and Molecular Imaging, 2019).

What was measured:
C4-2 cells = experiment: Determination of specific internalization ratio; type: cell-based
Description: In vitro and in vivo experiments were performed using the PSMA-positive C4-2 cell line, a subline of the LNCaP (lymph node carcinoma of the prostate) cell line (CRL-3314; American Type Culture Collection). C4-2 cells were cultivated in RPMI-1640 (PAN Biotech) supplemented with 10% fetal calf serum and stable glutamine (PAN Biotech). Cells were grown at 37 °C and incubated in humidified air equilibrated with 5% CO2.
For determination of the specific internalization ratio, 24-well plates were incubated for 20 min with 0.1% poly-L-lysine in PBS at room temperature and washed once with PBS. In the next step, 1 ml RPMI containing 1 × 10^5 C4-2 cells was added to each well and incubated overnight. The conditions during the experiment for each compound were: incubation at 37 °C or 4 °C with or without receptor blocking via 2-(phosphonomethyl)pentanedioic acid (2-PMPA; Axxora) at a final concentration of 500 μM. The cells were then incubated with 250 μl of a 30 nM solution of ^203Pb-labelled compound. The plates were incubated either for 45 min in a water bath at 37 °C or on ice at 4 °C. The cells were then washed three times with 1 ml ice-cold PBS and incubated with 0.5 ml glycine (50 mM in HCl, pH 2.8) for 5 min. After an additional washing step with 1 ml ice-cold PBS, the cells were lysed with 0.5 ml 0.3 M NaOH and collected, and the radioactivity was measured with a gamma counter for 1 min. The specific cellular uptake was determined as the percentage of initially added radioactivity bound per 10^6 cells (%IA/10^6 cells) by subtraction of the respective uptake under blocking conditions. All experiments were performed in triplicate.

[1] = test system: patients with castration-resistant metastasized prostate cancer; experiment: Dosimetry extrapolated from ^203Pb-CA012 to ^212Pb-CA012
Description: Images were loaded into the QDOSE dosimetry software suite (ABX-CRO, Dresden) and coregistered. […] These ROIs were used to determine time–activity curves (TAC) for each organ, tumours and the total body. The first time-point (before voiding) of the uncorrected geometric mean images was used to calibrate the ROI counts in relation to the injected activity. The red marrow TAC was calculated from venous blood (six samples per patient) using established model assumptions [10, 11].
Biexponential curve fitting was applied to all organ TACs (with the exception of a few tumours and glands which had to be fitted monoexponentially). The accumulated activity was integrated assuming a linear increase from time 0 to the first measured time-point, numerically from the first to the last measured time-point using trapezoidal approximations and from the last measured time-point to infinity using the fit function. The activity in the remainder of the body was calculated by subtracting the activity of all source organs from that of the total body.
The residence times in the kidneys, liver, spleen, urinary bladder contents, red marrow and remainder of the body were exported for dose calculations in OLINDA 1.1, using the organ masses of the adult phantom [12].
OLINDA calculations were performed for all nuclides individually. […] Tumour and salivary gland volumes were measured individually based on CT segmentation and their absorbed doses were approximated using a power function interpolating the spherical model estimates [15].

[2] = projected from therapeutic activity of 100 MBq
[3] = therapeutic ^212Pb incl. daughter nuclides, extrapolated from ^203Pb, RBE 5 for alpha, OLINDA male adult phantom

NC(=O)CN1CCN(CC(N)=O)CCN(CC(N)=O)C(Cc2ccc(NC(=S)NCC3CCC(C(=O)NC(Cc4ccc5ccccc5c4)C(=O)NCCCC[C@H](NC(=O)N[C@@H](CCC(=O)O)C(=O)O)C(=O)O)CC3)cc2)CN(CC(N)=O)CC1.[203Pb+2] (some centres unmarked) [^203Pb-CA009]
specific ligand-induced internalization (C4-2 cells): approximately 27 %ID/10^6 cells
Specific lysate (specific internalization) (C4-2 cells; ^203Pb-labelled compound 30 nM, 45 min, 2-PMPA blocking subtracted, mean ± SD n = 3): 27.4 ± 2.4 %IA/10^6 cells

NC(=O)CN1CCN(CC(N)=O)CCN(CC(=O)NC[C@H]2CC[C@H](C(=O)N[C@@H](Cc3ccc4ccccc4c3)C(=O)NCCCC[C@H](NC(=O)N[C@@H](CCC(=O)O)C(=O)O)C(=O)O)CC2)CCN(CC(N)=O)CC1.[212Pb+2] [^212Pb-CA012]
cumulative dose limited by the kidneys (dose-limiting organ) ([1]; preliminary approximation): 400–600 MBq
Equivalent dose, Liver [1, 2]: 0.7 SvRBE5
Equivalent dose, other organs [1, 2]: 0.2 SvRBE5
Tissue equivalent dose, Kidneys [1, 2]: 4.9 SvRBE5
Tissue equivalent dose, Red marrow ([1]; projected from therapeutic activity of 100 MBq, instant decay of daughter nuclides assumed): 0.6 SvRBE5
Effective dose [1, 3]: 415.1 mSv RBE5/100 Mbq
Effective dose equivalent [1, 3]: 748.9 mSv RBE5/100 Mbq
Equivalent dose, Adrenals [1, 3]: 193.1 mSv RBE5/100 Mbq
Equivalent dose, Brain [1, 3]: 190.0 mSv RBE5/100 Mbq
Equivalent dose, Breasts [1, 3]: 190.0 mSv RBE5/100 Mbq
Equivalent dose, Gallbladder [1, 3]: 192.9 mSv RBE5/100 Mbq
Equivalent dose, Heart [1, 3]: 191.3 mSv RBE5/100 Mbq
Equivalent dose, Kidneys [1, 3]: 4906.6 mSv RBE5/100 Mbq
Equivalent dose, Liver [1, 3]: 703.3 mSv RBE5/100 Mbq
Equivalent dose, Lower large intestine [1, 3]: 191.3 mSv RBE5/100 Mbq
Equivalent dose, Lungs [1, 3]: 190.9 mSv RBE5/100 Mbq
Equivalent dose, Muscle [1, 3]: 190.7 mSv RBE5/100 Mbq
Equivalent dose, Osteogenic cells [1, 3]: 3796.4 mSv RBE5/100 Mbq
Equivalent dose, Pancreas [1, 3]: 192.9 mSv RBE5/100 Mbq
Equivalent dose, Red marrow [1, 3]: 615.1 mSv RBE5/100 Mbq
Equivalent dose, Skin [1, 3]: 189.8 mSv RBE5/100 Mbq
Equivalent dose, Small intestine [1, 3]: 191.8 mSv RBE5/100 Mbq
Equivalent dose, Spleen [1, 3]: 1606.7 mSv RBE5/100 Mbq
Equivalent dose, Stomach [1, 3]: 191.8 mSv RBE5/100 Mbq
Equivalent dose, Testes [1, 3]: 190.4 mSv RBE5/100 Mbq
Equivalent dose, Thymus [1, 3]: 190.7 mSv RBE5/100 Mbq
Equivalent dose, Thyroid [1, 3]: 190.5 mSv RBE5/100 Mbq
Equivalent dose, Total body [1, 3]: 237.8 mSv RBE5/100 Mbq
Equivalent dose, Upper large intestine [1, 3]: 191.8 mSv RBE5/100 Mbq
Equivalent dose, Urinary bladder [1, 3]: 200.2 mSv RBE5/100 Mbq
